Laboratory results: patent publication US10752616B2, “Bicycloheteroaryl-heteroaryl-benzoic acid compounds as retinoic acid receptor beta (RARβ) agonists” (King's College London, priority 2014, dated 2020)
Entries after “also recorded” stand apart in the source; their conditions may differ.

Target: RARβ (Mus musculus (Mouse), UniProt P22605)
Assay: Transactivation assay for RARβ (gal4-RAR fusion, pFR-luc reporter, COS-7 cells), Table 2
Assay type: cell-based
Conditions: COS-7 reporter, mean of three or more determinations, species not stated (method: mouse or human)
Procedure: (§1) Transcriptional transactivation assays were performed with gal4 fusion receptor constructs, created using each of the RAR ligand binding domains of either mouse or human, co-transfected with the pFR-luc (Stratagene) reporter construct in COS-7 cells.
(§2) Briefly, on day 1, 96 well plates were seeded with 8000 cells per well then left to recover overnight. On day 2, the cells were co-transfected with 100 ng of reporter plasmid and 10 ng of the appropriate receptor plasmid per well using lipofectamine (Invitrogen). On day 3, the lipofectamine containing media was replaced by a DMEM without phenol red, followed by the addition of test compound dissolved in 1 μL of DMSO to each well's 100 μL total volume. Finally, on day 4, the cells were lysed and their luciferase substrate was provided by the BrightGlo™ reagent (Promega), the plates were then read on the MicroBeta TriLux™ (Perkin Elmer).
(§3) Data for test compounds are quoted as EC50 values. Where replicate data has been generated, the data are quoted as the mean EC50 from the separate experiments.
(§4) EC50's values are reported as mean values of three or more determinations.

RARβ (Mus musculus (Mouse), UniProt P22605), sequence (P22605 210-444): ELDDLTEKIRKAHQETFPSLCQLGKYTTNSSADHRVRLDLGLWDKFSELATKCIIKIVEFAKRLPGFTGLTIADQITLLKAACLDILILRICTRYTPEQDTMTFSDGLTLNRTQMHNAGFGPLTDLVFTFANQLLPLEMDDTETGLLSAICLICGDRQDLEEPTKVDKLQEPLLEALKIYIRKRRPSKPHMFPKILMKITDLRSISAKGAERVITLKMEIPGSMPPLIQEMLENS

Row | EC50 | Structure (SMILES)
1 | 3.1 nM | Cc1ccc(C)c2oc(-c3nsc(-c4ccc(C(=O)O)cc4)n3)cc12 [BHBA-042, 4-(3-(4,7-Dimethylbenzofuran-2-yl)-1,2,4-thiadiazol-5-yl)benzoic acid]
2 | 5.2 nM | Cc1cc(-c2nc(-c3cc4c(C)ccc(C)c4o3)ns2)ccc1C(=O)O [BHBA-043, 4-(3-(4,7-Dimethylbenzofuran-2-yl)-1,2,4-thiadiazol-5-yl)-2-methylbenzoic acid]
3 | 2 nM | Cc1ccc(C)c2oc(-c3nsc(-c4ccc(C(=O)O)c(F)c4)n3)cc12 [BHBA-044, 4-(3-(4,7-Dimethylbenzofuran-2-yl)-1,2,4-thiadiazol-5-yl)-2-fluorobenzoic acid]
4 | 4 nM | Cc1c(Cl)cc(C)c2oc(-c3nc(-c4ccc(C(=O)O)cc4)no3)cc12 [BHBA-045, 4-(5-(5-Chloro-4,7-dimethylbenzofuran-2-yl)-1,2,4-oxadiazol-3-yl)benzoic acid]

Target: RARα (Mus musculus (Mouse), UniProt P11416)
Assay: Transactivation assay for RARα (gal4-RAR fusion, pFR-luc reporter, COS-7 cells), Table 2
Assay type: cell-based
Conditions: Table 2; COS-7 reporter; mean of three or more determinations; inactive = no agonist action at highest concentration tested
Procedure: as §1, §2, §3, §4

RARα (Mus musculus (Mouse), UniProt P11416), sequence (P11416 183-417): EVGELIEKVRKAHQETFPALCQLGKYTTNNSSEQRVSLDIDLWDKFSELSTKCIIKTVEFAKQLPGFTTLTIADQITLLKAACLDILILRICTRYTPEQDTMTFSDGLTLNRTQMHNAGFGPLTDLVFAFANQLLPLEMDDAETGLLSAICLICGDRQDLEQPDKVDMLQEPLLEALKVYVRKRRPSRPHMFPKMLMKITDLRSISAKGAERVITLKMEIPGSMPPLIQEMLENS

Row | EC50 | Structure (SMILES)
5 | 9.4 nM | Cc1ccc(C)c2oc(-c3nsc(-c4ccc(C(=O)O)cc4)n3)cc12 [BHBA-042, 4-(3-(4,7-Dimethylbenzofuran-2-yl)-1,2,4-thiadiazol-5-yl)benzoic acid]
6 | 44 nM | Cc1cc(-c2nc(-c3cc4c(C)ccc(C)c4o3)ns2)ccc1C(=O)O [BHBA-043, 4-(3-(4,7-Dimethylbenzofuran-2-yl)-1,2,4-thiadiazol-5-yl)-2-methylbenzoic acid]
7 | 26 nM | Cc1ccc(C)c2oc(-c3nsc(-c4ccc(C(=O)O)c(F)c4)n3)cc12 [BHBA-044, 4-(3-(4,7-Dimethylbenzofuran-2-yl)-1,2,4-thiadiazol-5-yl)-2-fluorobenzoic acid]
8 | 91 nM | Cc1c(Cl)cc(C)c2oc(-c3nc(-c4ccc(C(=O)O)cc4)no3)cc12 [BHBA-045, 4-(5-(5-Chloro-4,7-dimethylbenzofuran-2-yl)-1,2,4-oxadiazol-3-yl)benzoic acid]

Same assay, conditions: fold-selectivity for RARβ over RARα; >1 = selective for RARβ

Row | RARα/RARβ ratio | Structure (SMILES)
9 | 3 | Cc1ccc(C)c2oc(-c3nsc(-c4ccc(C(=O)O)cc4)n3)cc12 [BHBA-042, 4-(3-(4,7-Dimethylbenzofuran-2-yl)-1,2,4-thiadiazol-5-yl)benzoic acid]
10 | 13 | Cc1ccc(C)c2oc(-c3nsc(-c4ccc(C(=O)O)c(F)c4)n3)cc12 [BHBA-044, 4-(3-(4,7-Dimethylbenzofuran-2-yl)-1,2,4-thiadiazol-5-yl)-2-fluorobenzoic acid]

Target: RARγ (Mus musculus (Mouse), UniProt P18911)
Assay: Transactivation assay for RARγ (gal4-RAR fusion, pFR-luc reporter, COS-7 cells), Table 2
Assay type: cell-based
Conditions: Table 2; COS-7 reporter; mean of three or more determinations; inactive = no agonist action at highest concentration tested
Procedure: as §1, §2, §3, §4

RARγ (Mus musculus (Mouse), UniProt P18911), sequence (P18911 185-419): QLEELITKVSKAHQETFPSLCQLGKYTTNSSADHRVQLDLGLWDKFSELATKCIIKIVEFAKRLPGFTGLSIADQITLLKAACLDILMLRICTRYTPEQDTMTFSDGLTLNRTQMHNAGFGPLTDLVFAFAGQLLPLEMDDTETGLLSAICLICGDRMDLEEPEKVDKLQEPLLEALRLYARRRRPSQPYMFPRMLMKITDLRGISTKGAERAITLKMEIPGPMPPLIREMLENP

Row | EC50 | Structure (SMILES)
11 | 2.3 nM | Cc1ccc(C)c2oc(-c3nsc(-c4ccc(C(=O)O)cc4)n3)cc12 [BHBA-042, 4-(3-(4,7-Dimethylbenzofuran-2-yl)-1,2,4-thiadiazol-5-yl)benzoic acid]
12 | 25 nM | Cc1cc(-c2nc(-c3cc4c(C)ccc(C)c4o3)ns2)ccc1C(=O)O [BHBA-043, 4-(3-(4,7-Dimethylbenzofuran-2-yl)-1,2,4-thiadiazol-5-yl)-2-methylbenzoic acid]
13 | 3.4 nM | Cc1ccc(C)c2oc(-c3nsc(-c4ccc(C(=O)O)c(F)c4)n3)cc12 [BHBA-044, 4-(3-(4,7-Dimethylbenzofuran-2-yl)-1,2,4-thiadiazol-5-yl)-2-fluorobenzoic acid]
14 | 40 nM | Cc1c(Cl)cc(C)c2oc(-c3nc(-c4ccc(C(=O)O)cc4)no3)cc12 [BHBA-045, 4-(5-(5-Chloro-4,7-dimethylbenzofuran-2-yl)-1,2,4-oxadiazol-3-yl)benzoic acid]

Same assay, conditions: fold-selectivity for RARβ over RARγ; >1 = selective for RARβ

Row | RARγ/RARβ ratio | Structure (SMILES)
15 | 0.74 | Cc1ccc(C)c2oc(-c3nsc(-c4ccc(C(=O)O)cc4)n3)cc12 [BHBA-042, 4-(3-(4,7-Dimethylbenzofuran-2-yl)-1,2,4-thiadiazol-5-yl)benzoic acid]
16 | 1.7 | Cc1ccc(C)c2oc(-c3nsc(-c4ccc(C(=O)O)c(F)c4)n3)cc12 [BHBA-044, 4-(3-(4,7-Dimethylbenzofuran-2-yl)-1,2,4-thiadiazol-5-yl)-2-fluorobenzoic acid]

Target: T1, RARα (Homo sapiens (Human), UniProt P10276)
Assay: Binding affinity from Yoshimura et al., 2000, RARα
Conditions: ratio of relative IC50 (binding), Table 5

T1 sequence (P10276 whole entry, species assumed): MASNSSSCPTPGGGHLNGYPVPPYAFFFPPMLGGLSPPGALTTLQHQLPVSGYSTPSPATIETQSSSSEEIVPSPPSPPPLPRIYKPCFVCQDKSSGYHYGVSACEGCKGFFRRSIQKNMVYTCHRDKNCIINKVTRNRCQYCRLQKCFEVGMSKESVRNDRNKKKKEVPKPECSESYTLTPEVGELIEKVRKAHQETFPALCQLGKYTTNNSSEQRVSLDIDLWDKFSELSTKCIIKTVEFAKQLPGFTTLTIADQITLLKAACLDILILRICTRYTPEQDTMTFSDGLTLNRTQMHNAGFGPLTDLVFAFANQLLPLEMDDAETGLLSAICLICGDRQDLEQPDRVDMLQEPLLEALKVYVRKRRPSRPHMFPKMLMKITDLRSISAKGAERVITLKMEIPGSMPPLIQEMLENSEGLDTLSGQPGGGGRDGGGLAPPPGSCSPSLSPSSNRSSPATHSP

Row | RARα/RARβ ratio | Structure (SMILES)
17 | 0.0022 | O=C(O)c1ccc(-c2ccc(-c3cc4c(Cl)ccc(Cl)c4o3)[nH]2)cc1 [1c]
18 | 0.0038 | O=C(O)c1ccc(-c2ccc(-c3cc4c(C(F)(F)F)ccc(F)c4o3)[nH]2)cc1 [1f]

Row | Structure (SMILES) | RARα/RARβ ratio
19 | Cc1ccc(C)c2oc(-c3ccc(-c4ccc(C(=O)O)cc4)[nH]3)cc12 [1b] | 0.0029

Target: T1, RARα
Assay: Subtype-specific transactivation from Yoshimura et al., 2000, RARα
Assay type: cell-based
Conditions: ratio of relative EC30 (transactivation), Table 6

Row | RARα/RARβ ratio | Structure (SMILES)
20 | 0.006 | O=C(O)c1ccc(-c2ccc(-c3cc4c(Cl)ccc(Cl)c4o3)[nH]2)cc1 [1c]
21 | 0.0038 | O=C(O)c1ccc(-c2ccc(-c3cc4c(F)ccc(F)c4o3)[nH]2)cc1 [1e]
22 | 0.034 | O=C(O)c1ccc(-c2ccc(-c3cc4c(C(F)(F)F)ccc(F)c4o3)[nH]2)cc1 [1f]
23 | 0.010 | Cc1ccc(C)c2sc(-c3ccc(-c4ccc(C(=O)O)cc4)[nH]3)cc12 [1j]

Row | Structure (SMILES) | RARα/RARβ ratio
24 | Cc1ccc(C)c2oc(-c3ccc(-c4ccc(C(=O)O)cc4)[nH]3)cc12 [1b] | 0.148

Target: T2, RARγ (Homo sapiens (Human), UniProt P13631)
Assay: Subtype-specific transactivation from Yoshimura et al., 2000, RARγ
Assay type: cell-based
Conditions: ratio of relative EC30 (transactivation), Table 6

T2 sequence (P13631 whole entry, species assumed): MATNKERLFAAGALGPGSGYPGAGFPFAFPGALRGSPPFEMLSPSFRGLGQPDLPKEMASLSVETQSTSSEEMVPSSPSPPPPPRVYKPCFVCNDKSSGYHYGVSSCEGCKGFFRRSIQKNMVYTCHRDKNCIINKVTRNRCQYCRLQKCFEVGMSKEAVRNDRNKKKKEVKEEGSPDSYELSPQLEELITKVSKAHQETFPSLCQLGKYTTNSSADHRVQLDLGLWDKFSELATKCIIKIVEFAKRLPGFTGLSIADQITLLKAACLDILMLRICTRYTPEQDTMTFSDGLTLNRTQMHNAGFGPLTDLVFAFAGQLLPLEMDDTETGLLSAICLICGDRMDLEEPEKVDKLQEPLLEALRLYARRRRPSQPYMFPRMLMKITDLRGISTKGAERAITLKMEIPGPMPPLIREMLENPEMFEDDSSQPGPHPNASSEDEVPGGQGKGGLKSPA

Row | RARγ/RARβ ratio | Structure (SMILES)
25 | 7.45 | O=C(O)c1ccc(-c2ccc(-c3cc4c(Cl)ccc(Cl)c4o3)[nH]2)cc1 [1c]
26 | 8.33 | O=C(O)c1ccc(-c2ccc(-c3cc4c(F)ccc(F)c4o3)[nH]2)cc1 [1e]
27 | 12.9 | O=C(O)c1ccc(-c2ccc(-c3cc4c(C(F)(F)F)ccc(F)c4o3)[nH]2)cc1 [1f]
28 | 6.46 | Cc1ccc(C)c2sc(-c3ccc(-c4ccc(C(=O)O)cc4)[nH]3)cc12 [1j]

Row | Structure (SMILES) | RARγ/RARβ ratio
29 | Cc1ccc(C)c2oc(-c3ccc(-c4ccc(C(=O)O)cc4)[nH]3)cc12 [1b] | 9.60

Tested on: cerebellar neurons
Assay: Neurite outgrowth assay, cerebellar neurons in the presence of myelin/MAG
Assay type: cell-based, rat
Conditions: cerebellar neurons, in the presence of MAG/myelin, with CD2019
Procedure: Cerebellar neurons isolated from post-natal day 3 rat pups were cultured over monolayers of parental 3T3 cells in control media, or media supplemented with a recombinant MAG-Fc chimera (R&D Systems) used at a final concentration of 20 μg/mL MAG-Fc. The monolayers were established for 24 hours prior to addition of the neurons and the co-cultures were maintained for approximately 21 hours. Following careful fixation with 4% paraformaldehyde, the neurons were immuno-stained with a GAP-43 antibody (from Graham Wilkin, Imperial College), dilution of 1:500, and the mean length of the longest neurite per cell was measured for approximately 120-150 neurons as previously described (see, e.g., Williams et al., 2005). DRG and cortical explants were obtained from adult rats, they were cultured in cellogen as previously described (see, e.g., Corcoran and Maden, 1999). Three explants per treatment were used. Neurite outgrowth was assessed 3 days later by immunohistochemistry with NF200 (Sigma, dilution of 1:200). The average lengths of the neurites were measured using image pro plus software. Media consisted of DMEM-F12 (Invitrogen) containing N2 (Invitrogen) supplemented with glucose (33 mM) and glutamine (2 mM).

Row | Structure (SMILES) | Effect on RARβ agonist (CD2019) mediated neurite outgrowth
30 | CCCCCCOC(=O)[C@]1(O)C[C@@H]2O[C@@]1(C)n1c3ccccc3c3c4c(c5c6ccccc6n2c5c31)C(=O)NC4 [KT5720] | little or no effect; also recorded: does not affect
31 | O=c1cc(N2CCOCC2)oc2c(-c3ccccc3)cccc12 [LY295002] | neurite outgrowth was severely impeded

Target: T1, RARα
Assay: not given
Conditions: transactivation, relative to atRA = 1; cited from earlier work

Row | Structure (SMILES) | RARα relative EC30
32 | Cc1ccc(C)c2oc(-c3ccc(-c4ccc(C(=O)O)cc4)[nH]3)cc12 [1b] | 0.37 ± 0.02
33 | O=C(O)c1ccc(-c2ccc(-c3cc4c(Cl)ccc(Cl)c4o3)[nH]2)cc1 [1c] | 0.70 ± 0.15
34 | O=C(O)c1ccc(-c2ccc(-c3cc4c(F)ccc(F)c4o3)[nH]2)cc1 [1e] | 0.80 ± 0.17
35 | O=C(O)c1ccc(-c2ccc(-c3cc4c(C(F)(F)F)ccc(F)c4o3)[nH]2)cc1 [1f] | 0.29 ± 0.04
36 | Cc1ccc(C)c2sc(-c3ccc(-c4ccc(C(=O)O)cc4)[nH]3)cc12 [1j] | 1.3 ± 0.6

Target: RARβ (Homo sapiens (Human), UniProt P10826)
Assay: not given
Conditions: transactivation, relative to atRA = 1; cited from earlier work

RARβ (Homo sapiens (Human), UniProt P10826), sequence (P10826 whole entry, species assumed): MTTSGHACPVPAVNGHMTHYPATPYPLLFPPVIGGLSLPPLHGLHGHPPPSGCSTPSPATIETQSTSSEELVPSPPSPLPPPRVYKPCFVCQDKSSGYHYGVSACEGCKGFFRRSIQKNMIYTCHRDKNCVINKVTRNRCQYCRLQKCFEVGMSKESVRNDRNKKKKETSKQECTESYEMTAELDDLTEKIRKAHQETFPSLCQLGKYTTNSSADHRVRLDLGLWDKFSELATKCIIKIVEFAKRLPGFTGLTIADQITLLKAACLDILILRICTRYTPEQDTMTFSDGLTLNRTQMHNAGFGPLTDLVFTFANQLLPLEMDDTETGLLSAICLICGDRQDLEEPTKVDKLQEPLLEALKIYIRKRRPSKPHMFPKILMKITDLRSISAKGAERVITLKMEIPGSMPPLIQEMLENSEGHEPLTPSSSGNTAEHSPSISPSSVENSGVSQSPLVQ

Row | Structure (SMILES) | RARβ relative EC30
37 | Cc1ccc(C)c2oc(-c3ccc(-c4ccc(C(=O)O)cc4)[nH]3)cc12 [1b] | 25 ± 12
38 | O=C(O)c1ccc(-c2ccc(-c3cc4c(Cl)ccc(Cl)c4o3)[nH]2)cc1 [1c] | 110 ± 30
39 | O=C(O)c1ccc(-c2ccc(-c3cc4c(F)ccc(F)c4o3)[nH]2)cc1 [1e] | 210 ± 40
40 | O=C(O)c1ccc(-c2ccc(-c3cc4c(C(F)(F)F)ccc(F)c4o3)[nH]2)cc1 [1f] | 8.5 ± 0.4
41 | Cc1ccc(C)c2sc(-c3ccc(-c4ccc(C(=O)O)cc4)[nH]3)cc12 [1j] | 130 ± 60

Target: T2, RARγ
Assay: not given
Conditions: transactivation, relative to atRA = 1; cited from earlier work

Row | Structure (SMILES) | RARγ relative EC30
42 | Cc1ccc(C)c2oc(-c3ccc(-c4ccc(C(=O)O)cc4)[nH]3)cc12 [1b] | 240 ± 30
43 | O=C(O)c1ccc(-c2ccc(-c3cc4c(Cl)ccc(Cl)c4o3)[nH]2)cc1 [1c] | 820 ± 290
44 | O=C(O)c1ccc(-c2ccc(-c3cc4c(F)ccc(F)c4o3)[nH]2)cc1 [1e] | 1750 ± 750
45 | O=C(O)c1ccc(-c2ccc(-c3cc4c(C(F)(F)F)ccc(F)c4o3)[nH]2)cc1 [1f] | 110 ± 20
46 | Cc1ccc(C)c2sc(-c3ccc(-c4ccc(C(=O)O)cc4)[nH]3)cc12 [1j] | 840 ± 360
